Results reported in US8729017B2 (priority 2011, dated 2014).
Like-named read-outs stand apart in the source and are kept apart here. Numbered stars: 1 amine (or outer) side, 2 acyl side, 3 side chain; on linkers, the order of the positions; unused ones are H or OH. Square brackets hold non-standard residues; d marks the D form. Side chains are listed from the residue outwards. Peptide text beside a SMILES is read from it. * marks the point of attachment. γGlu = O=C(O)[C@H](CCC(=O)[*:2])N[*:1]; Palmitoyl = CCCCCCCCCCCCCCCC(=O)*; Aib = CC(C)(N)C(=O)O

What was measured:
Assay type in all cases: cell-based
GIP receptor = biological target: T1, GIP receptor (Homo sapiens, UniProt P48546); experiment: in vitro agonist activity at the GIP receptor (cAMP luciferase reporter, HEK293 cells)
T1 construct: expressed in transfected cells; host or cells: HEK293
T1 sequence (P48546 22-466): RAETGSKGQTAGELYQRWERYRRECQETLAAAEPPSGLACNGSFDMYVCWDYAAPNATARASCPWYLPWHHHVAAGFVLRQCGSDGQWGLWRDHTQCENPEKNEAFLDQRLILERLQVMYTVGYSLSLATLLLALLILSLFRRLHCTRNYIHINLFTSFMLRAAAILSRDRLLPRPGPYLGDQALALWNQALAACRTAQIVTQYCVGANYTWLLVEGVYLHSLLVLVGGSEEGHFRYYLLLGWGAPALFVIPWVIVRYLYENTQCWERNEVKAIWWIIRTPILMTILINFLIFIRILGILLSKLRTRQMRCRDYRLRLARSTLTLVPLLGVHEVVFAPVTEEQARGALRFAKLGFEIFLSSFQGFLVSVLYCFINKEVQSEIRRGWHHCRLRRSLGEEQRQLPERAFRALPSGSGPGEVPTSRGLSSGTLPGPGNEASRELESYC
Description: It is understood that a lower EC50 indicates higher activity or potency at the receptor. […] The ability of each peptide to induce cAMP was measured in a firefly luciferase-based reporter assay. […] At the end of the incubation, 100 μL of LucLite luminescence substrate reagent (Perkin Elmer, Wellesley, Mass.) were added to each well. […] In some instances, the in vitro agonist activity at the GIP receptor was also tested.

GLP-1 receptor = biological target: T2, GLP-1 receptor (Homo sapiens, UniProt P43220); experiment: cAMP induction, firefly luciferase reporter assay in HEK293 cells co-transfected with the GLP-1 receptor
T2 construct: expressed in transfected cells; host or cells: HEK293
Description: (§1) The ability of each peptide to induce cAMP was measured in a firefly luciferase-based reporter assay. […] At the end of the incubation, 100 μL of LucLite luminescence substrate reagent (Perkin Elmer, Wellesley, Mass.) were added to each well. […] In some instances, the in vitro agonist activity at the GIP receptor was also tested.

glucagon receptor = biological target: T3, glucagon receptor (Homo sapiens, UniProt P47871); experiment: cAMP induction, firefly luciferase reporter assay in HEK293 cells co-transfected with the glucagon receptor
T3 construct: expressed in transfected cells; host or cells: HEK293
Description: as §1

[1] = in vitro agonist activity, read-out: EC50 (nM) at GIP receptor
[2] = HEK293 cells, cAMP-responsive luciferase reporter, 5 hours incubation

T2 sequence (P43220 24-463): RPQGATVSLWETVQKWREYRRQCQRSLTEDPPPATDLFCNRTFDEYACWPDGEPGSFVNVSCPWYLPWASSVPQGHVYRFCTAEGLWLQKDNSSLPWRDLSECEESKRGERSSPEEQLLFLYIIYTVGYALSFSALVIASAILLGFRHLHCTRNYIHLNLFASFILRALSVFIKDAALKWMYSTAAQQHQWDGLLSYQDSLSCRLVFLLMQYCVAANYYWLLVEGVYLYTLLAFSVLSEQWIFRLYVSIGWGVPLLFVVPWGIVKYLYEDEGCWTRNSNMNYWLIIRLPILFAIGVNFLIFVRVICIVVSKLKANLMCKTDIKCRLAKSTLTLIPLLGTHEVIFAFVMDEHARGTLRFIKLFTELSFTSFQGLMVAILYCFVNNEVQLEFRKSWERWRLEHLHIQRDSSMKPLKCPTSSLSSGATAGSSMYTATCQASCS
T3 sequence (P47871 26-477, species assumed): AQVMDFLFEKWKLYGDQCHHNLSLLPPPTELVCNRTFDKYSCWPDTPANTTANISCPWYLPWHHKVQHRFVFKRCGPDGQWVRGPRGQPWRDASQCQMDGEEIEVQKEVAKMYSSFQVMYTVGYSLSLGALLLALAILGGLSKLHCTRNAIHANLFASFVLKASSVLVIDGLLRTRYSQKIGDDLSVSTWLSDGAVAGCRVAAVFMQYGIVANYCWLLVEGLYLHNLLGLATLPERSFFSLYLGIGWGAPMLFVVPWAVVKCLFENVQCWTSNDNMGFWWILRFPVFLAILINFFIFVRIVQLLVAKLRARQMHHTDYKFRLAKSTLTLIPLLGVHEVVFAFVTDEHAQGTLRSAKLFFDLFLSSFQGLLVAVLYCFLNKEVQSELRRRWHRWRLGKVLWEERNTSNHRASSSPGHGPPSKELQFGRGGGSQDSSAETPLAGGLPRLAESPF

Compound | EC50 (GIP receptor; [1]) | EC50 (GLP-1 receptor; [2]) | EC50 (glucagon receptor; [2]) | EC50 (GIP receptor) | EC50 (GLP-1 receptor) | EC50 (glucagon receptor)
CCCCCCCCCCCCCCCC(=O)N[C@@H](CCC(=O)N[C@@H](CCC(=O)NCCCC[C@H](NC(=O)[C@H](CC(=O)O)NC(=O)[C@H](CO)NC(=O)[C@@H](NC(=O)[C@H](Cc1ccccc1)NC(=O)[C@@H](NC(=O)CNC(=O)[C@H](CCC(N)=O)NC(=O)C(C)(C)NC(=O)[C@@H](N)Cc1c[nH]cn1)[C@@H](C)O)[C@@H](C)O)C(=O)N[C@@H](CO)C(=O)N[C@@H](CCCCN)C(=O)N[C@@H](Cc1ccc(O)cc1)C(=O)N[C@@H](CC(C)C)C(=O)N[C@@H](CC(=O)O)C(=O)NC(C)(C)C(=O)N[C@@H](CCCNC(=N)N)C(=O)N[C@@H](C)C(=O)N[C@@H](C)C(=O)N[C@@H](CCC(N)=O)C(=O)N[C@@H](CC(=O)O)C(=O)N[C@@H](Cc1ccccc1)C(=O)N[C@H](C(=O)N[C@@H](CCC(N)=O)C(=O)N[C@@H](Cc1c[nH]c2ccccc12)C(=O)N[C@@H](CC(C)C)C(=O)N[C@@H](CCCCN)C(=O)N[C@@H](CC(=O)O)C(=O)NCC(=O)N[C@@H](CCCNC(=N)N)C(=O)NCC(N)=O)C(C)C)C(=O)O)C(=O)O [compound 24] (H-H[Aib]QGTFTSDK([γGlu-γGlu-Palmitoyl])SKYLD[Aib]RAAQDFVQWLKDGRG-NH2; N-terminus assumed) | 1.46 nM | 0.004 nM | 0.021 nM |  |  | 
CCCCCCCCCCCCCCCC(=O)N[C@@H](CCC(=O)NCCCC[C@H](NC(=O)[C@H](CC(=O)O)NC(=O)[C@H](CO)NC(=O)[C@@H](NC(=O)[C@H](Cc1ccccc1)NC(=O)[C@@H](NC(=O)CNC(=O)[C@H](CCC(N)=O)NC(=O)[C@@H](C)NC(=O)[C@@H](N)Cc1cnc[nH]1)[C@@H](C)O)[C@@H](C)O)C(=O)N[C@@H](CO)C(=O)N[C@@H](CCCCN)C(=O)N[C@@H](Cc1ccc(O)cc1)C(=O)N[C@@H](CC(C)C)C(=O)N[C@@H](CC(=O)O)C(=O)N[C@@H](CCC(=O)O)C(=O)N[C@@H](CCCNC(=N)N)C(=O)N[C@@H](C)C(=O)N[C@@H](C)C(=O)N[C@@H](CCC(N)=O)C(=O)N[C@@H](CC(=O)O)C(=O)N[C@@H](Cc1ccccc1)C(=O)N[C@H](C(=O)N[C@@H](CCC(N)=O)C(=O)N[C@@H](Cc1c[nH]c2ccccc12)C(=O)N[C@@H](CC(C)C)C(=O)N[C@@H](CC(C)C)C(=O)N[C@@H](CC(=O)O)C(=O)N[C@H](C(N)=O)[C@@H](C)O)C(C)C)C(=O)O [compound 56] |  |  |  | 1.64 nM | 0.02 nM | 0.006 nM
CCCCCCCCCCCCCCCC(=O)NCCCC[C@H](NC(=O)[C@H](CC(=O)O)NC(=O)[C@H](CO)NC(=O)[C@@H](NC(=O)[C@H](Cc1ccccc1)NC(=O)[C@@H](NC(=O)CNC(=O)[C@H](CCC(N)=O)NC(=O)C(C)(C)NC(=O)[C@@H](N)Cc1c[nH]cn1)[C@@H](C)O)[C@@H](C)O)C(=O)N[C@@H](CO)C(=O)N[C@@H](CCCCN)C(=O)N[C@@H](Cc1ccc(O)cc1)C(=O)N[C@@H](CC(C)C)C(=O)N[C@@H](CC(=O)O)C(=O)N[C@@H](CCC(=O)O)C(=O)N[C@@H](CCCNC(=N)N)C(=O)N[C@@H](CCCNC(=N)N)C(=O)N[C@@H](C)C(=O)NC(C)(C)C(=O)N[C@@H](CC(=O)O)C(=O)N[C@@H](Cc1ccccc1)C(=O)N[C@H](C(=O)N[C@@H](CCC(N)=O)C(=O)N[C@@H](Cc1c[nH]c2ccccc12)C(=O)N[C@@H](CC(C)C)C(=O)N[C@@H](CCSC)C(=O)N[C@@H](CC(N)=O)C(=O)N[C@H](C(N)=O)[C@@H](C)O)C(C)C [compound 59] (H-H[Aib]QGTFTSDK(Palmitoyl)SKYLDERRA[Aib]DFVQWLMNT-NH2) | 7.48 nM | 0.01 nM | 0.051 nM |  |  | 

The remaining compounds from weak to strong by EC50 (GIP receptor; [1]), led by results:

EC50 (GIP receptor; [1]) | EC50 (GLP-1 receptor; [2]) | EC50 (glucagon receptor; [2]) | Compound | EC50 (GIP receptor) | EC50 (GLP-1 receptor) | EC50 (glucagon receptor)
35.7 nM | 0.025 nM | 0.09 nM | CCCCCCCCCCCCCCCC(=O)NCCCC[C@H](NC(=O)[C@H](CC(=O)O)NC(=O)[C@H](CO)NC(=O)[C@@H](NC(=O)[C@H](Cc1ccccc1)NC(=O)[C@@H](NC(=O)CNC(=O)[C@H](CCC(N)=O)NC(=O)C(C)(C)NC(=O)[C@@H](N)Cc1c[nH]cn1)[C@@H](C)O)[C@@H](C)O)C(=O)N[C@@H](CO)C(=O)N[C@@H](CCCCN)C(=O)N[C@@H](Cc1ccc(O)cc1)C(=O)N[C@@H](CC(C)C)C(=O)N[C@@H](CC(=O)O)C(=O)N[C@@H](CO)C(=O)N[C@@H](CCCNC(=N)N)C(=O)N[C@@H](CCCNC(=N)N)C(=O)N[C@@H](C)C(=O)NC(C)(C)C(=O)N[C@@H](CC(=O)O)C(=O)N[C@@H](Cc1ccccc1)C(=O)N[C@H](C(=O)N[C@@H](CCC(N)=O)C(=O)N[C@@H](Cc1c[nH]c2ccccc12)C(=O)N[C@@H](CC(C)C)C(=O)N[C@@H](CCSC)C(=O)N[C@@H](CC(N)=O)C(=O)N[C@H](C(N)=O)[C@@H](C)O)C(C)C [compound 58] (H-H[Aib]QGTFTSDK(Palmitoyl)SKYLDSRRA[Aib]DFVQWLMNT-NH2) |  |  | 
2.12 nM | 0.005 nM | 0.022 nM | CCCCCCCCCCCCCCCC(=O)N[C@@H](CCC(=O)NCCCC[C@H](NC(=O)[C@H](CC(=O)O)NC(=O)[C@H](CO)NC(=O)[C@@H](NC(=O)[C@H](Cc1ccccc1)NC(=O)[C@@H](NC(=O)CNC(=O)[C@H](CCC(N)=O)NC(=O)[C@@H](CO)NC(=O)[C@@H](N)Cc1c[nH]cn1)[C@@H](C)O)[C@@H](C)O)C(=O)N[C@@H](CO)C(=O)N[C@@H](CCCCN)C(=O)N[C@@H](Cc1ccc(O)cc1)C(=O)N[C@@H](CC(C)C)C(=O)N[C@@H](CC(=O)O)C(=O)N[C@@H](CCC(=O)O)C(=O)N[C@@H](CCCNC(=N)N)C(=O)N[C@@H](C)C(=O)N[C@@H](C)C(=O)N[C@@H](CCC(N)=O)C(=O)N[C@@H](CC(=O)O)C(=O)N[C@@H](Cc1ccccc1)C(=O)N[C@H](C(=O)N[C@@H](CCC(N)=O)C(=O)N[C@@H](Cc1c[nH]c2ccccc12)C(=O)N[C@@H](CC(C)C)C(=O)N[C@@H](CC(C)C)C(=O)N[C@@H](CCCCN)C(=O)NCC(=O)N[C@@H](CCCNC(=N)N)C(=O)NCC(N)=O)C(C)C)C(=O)O [compound 27] |  |  | 
1.65 nM | 0.007 nM | 0.014 nM | CCCCCCCCCCCCCCCC(=O)N[C@@H](CCC(=O)N[C@@H](CCC(=O)NCCCC[C@H](NC(=O)[C@H](CC(=O)O)NC(=O)[C@H](CO)NC(=O)[C@@H](NC(=O)[C@H](Cc1ccccc1)NC(=O)[C@@H](NC(=O)CNC(=O)[C@H](CCC(N)=O)NC(=O)C(C)(C)NC(=O)[C@@H](N)Cc1c[nH]cn1)[C@@H](C)O)[C@@H](C)O)C(=O)N[C@@H](CO)C(=O)N[C@@H](CCCCN)C(=O)N[C@@H](Cc1ccc(O)cc1)C(=O)N[C@@H](CC(C)C)C(=O)N[C@@H](CC(=O)O)C(=O)NC(C)(C)C(=O)N[C@@H](CCCNC(=N)N)C(=O)N[C@@H](C)C(=O)N[C@@H](C)C(=O)N[C@@H](CCC(N)=O)C(=O)N[C@@H](CC(=O)O)C(=O)N[C@@H](Cc1ccccc1)C(=O)N[C@H](C(=O)N[C@@H](CCC(N)=O)C(=O)N[C@@H](Cc1c[nH]c2ccccc12)C(=O)N[C@@H](CC(C)C)C(=O)N[C@@H](CC(C)C)C(=O)NC(C)(C)C(=O)NCC(=O)N[C@@H](CCCNC(=N)N)C(=O)NCC(N)=O)C(C)C)C(=O)O)C(=O)O [compound 29] (H-H[Aib]QGTFTSDK([γGlu-γGlu-Palmitoyl])SKYLD[Aib]RAAQDFVQWLL[Aib]GRG-NH2) |  |  | 
1.38 nM | 0.004 nM | 0.006 nM | CCCCCCCCCCCCCCCC(=O)N[C@@H](CCC(=O)NCCCC[C@H](NC(=O)[C@H](CC(=O)O)NC(=O)[C@H](CO)NC(=O)[C@@H](NC(=O)[C@H](Cc1ccccc1)NC(=O)[C@@H](NC(=O)CNC(=O)[C@H](CCC(N)=O)NC(=O)[C@@H](CO)NC(=O)CCc1c[nH]cn1)[C@@H](C)O)[C@@H](C)O)C(=O)N[C@@H](CO)C(=O)N[C@@H](CCCCN)C(=O)N[C@@H](Cc1ccc(O)cc1)C(=O)N[C@@H](CC(C)C)C(=O)N[C@@H](CC(=O)O)C(=O)N[C@@H](CCC(=O)O)C(=O)N[C@@H](CCCNC(=N)N)C(=O)N[C@@H](C)C(=O)N[C@@H](C)C(=O)N[C@@H](CCC(N)=O)C(=O)N[C@@H](CC(=O)O)C(=O)N[C@@H](Cc1ccccc1)C(=O)N[C@H](C(=O)N[C@@H](CCC(N)=O)C(=O)N[C@@H](Cc1c[nH]c2ccccc12)C(=O)N[C@@H](CC(C)C)C(=O)N[C@@H](CC(C)C)C(=O)N[C@@H](CC(=O)O)C(=O)N[C@H](C(N)=O)[C@@H](C)O)C(C)C)C(=O)O [compound 20] |  |  | 
